Source: patent US20120282358A1, “ORAL ADMINISTRATION COMPOSITION” (UNITIKA LTD., priority 2007, published 2012)

How the values were obtained:
[1] = Applicant's own test of β-cryptoxanthin alone for obesity prevention / fat reduction; conditions: no details given
[2] = test system: Female mice of KK-Ay/TacJc1 line (diabetes mellitus type II model animal); test: Test Example 1-2: KK-Ay mice on high fat feed, 4 weeks; body weight, triglyceride, abdominal white fat tissue weight; type: in vivo; conditions: 29th day; in comparison with Comparative Example 1-2 and Comparative Example 1-4; FIG. 9
Excerpt: Female mice of KK-Ay/TacJc1 line (6 weeks of age, manufactured by CLEA Japan Inc.), established as a diabetes mellitus type II model animal, were divided into groups of 6 animals per group, and β-cryptoxanthin (95% in purity, manufactured by SHIKOKU YASHIMA PURE CHEMICALS CO., LTD.) and glucosylceramide (3% in purity, konnyaku ceramide manufactured by UNITIKA, LTD.) were mixed with a high fat feed, at the ratios of 0.2% and 4% respectively, and subjected to free ingestion together with water. As the control group, tests were carried out by providing the mice with a high fat feed (CLEA Rodent Diet Quick Fat, manufactured by CLEA Japan Inc) to which nothing was added (Comparative Example 1-2), the high fat feed to which 0.2% of β-cryptoxanthin alone was added (Comparative Example 1-3) and the high fat feed to which 4% of glucosylceramide alone was added (Comparative Example 1-4).
The administration was carried out for 4 weeks, and body weight and triglyceride content were measured before the administration and on the 7th, 14th, 21st and 28th days after the administration. In addition, the mice were sacrificed on the 29th day after the commencement of administration, and the visceral fats, namely abdominal white fat tissues, were collected and their weights were compared. The results are shown in FIG. 7, FIG. 8 and FIG. 9, respectively.

[3] = test system: Female mice of KK-Ay/TacJc1 line (diabetes mellitus type II model animal); test: Test Examples 2-1, 2-2, 2-3: KK-Ay mice on high fat feed, 4 weeks; body weight, blood triglyceride, visceral white fat tissue mass; type: in vivo; conditions: for mass of visceral fat (abdominal white fat tissue): 29th day after commencement of administration; for mass of visceral fat (abdominal white fat tissue) / triglyceride content in blood: in comparison with control group; for change in body weight / triglyceride content in blood: mixed in high fat feed, 4 weeks; for change in body weight: measured on 7th, 14th, 21st, 28th days, in comparison with control group (high fat feed alone); for triglyceride content in blood: Triglyceride E-test Wako
Method: Female mice of KK-Ay/TacJc1 line (6 weeks of age: manufactured by CLEA Japan Inc.), established as a diabetes mellitus type II model animal, were divided into groups of 6 animals per group, and the composition obtained in Example 1 was mixed with a high fat feed at a ratio of 4% and subjected to free ingestion together with water. The high fat feed alone was allowed to be ingested by the control group.
The administration was carried out for 4 weeks, and the body weight was measured before the administration and on the 7th, 14th, 21st and 28th days after the administration.
Simultaneously with the measurement of body weights of the mice used in Test Example 1-1, blood collection was carried out and the triglyceride content in blood was measured using Triglyceride E-test Wako (manufactured by Wako Pure Chemical Industries, Ltd.) The result is shown in FIG. 11.
The mice used in Test Example 2-1 were sacrificed on the 29th day after commencement of the administration, and collection of the visceral fat, namely white fat tissue, was carried out to compare their mass.

Compound	action by individual use (obesity prevention / fat reduction) [1]	abdominal fat tissue weight [2]	mass of visceral fat (abdominal white fat tissue) [3]	change in body weight [3]	triglyceride content in blood [3]
CC1=C(/C=C/C(C)=C/C=C/C(C)=C/C=C/C=C(C)/C=C/C=C(C)/C=C/C2=C(C)C[C@@H](O)CC2(C)C)C(C)(C)CCC1 [β-cryptoxanthin]	weak	–	–	–	–
CC1=C(/C=C/C(C)=C/C=C/C(C)=C/C=C/C=C(C)/C=C/C=C(C)/C=C/C2=C(C)C[C@@H](O)CC2(C)C)C(C)(C)CCC1 [Comparative Example 1-3, β-cryptoxanthin]	–	significantly reduced	–	–	–
CC1=C(/C=C/C(C)=C/C=C/C(C)=C/C=C/C=C(C)/C=C/C=C(C)/C=C/C2=C(C)C[C@@H](O)CC2(C)C)C(C)(C)CCC1 [Comparative Example 3, β-cryptoxanthin]	–	–	significantly reduced	significantly reduced on the 28th day	significantly reduced on the 21st and 28th days
a-glycosylhesperidin [Comparative Example 4]	–	–	reduction of the visceral fat was not found	significant difference was not found	significant difference was not found
